Calls of active or inactive are those of the source. No cut-off for these calls is given here.
Key:
[1] = target: Protein-tyrosine kinase 2-beta (Homo sapiens, UniProt Q14289); assay: Inhibition of PYK2 (unknown origin) at 1 uM relative to control
[2] = target: T1, Tyrosine-protein kinase ABL2 (Homo sapiens, UniProt P42684); assay: Inhibition of ARG (unknown origin) at 1 uM relative to control
[3] = tested on: Mus musculus; assay: Toxicity in BALB/c nude mouse xenografted with human HT-29 cells assessed as hematuria at 80 mg/kg/day administered qd measured up to day 21; assay type: organism-based; details: in vivo
[4] = target: T2, Vascular endothelial growth factor receptor 1 (Homo sapiens, UniProt P17948); assay: Inhibition of VEGFR1 (unknown origin) at 1 uM relative to control
[5] = tested on: NCI-H460; assay: Antitumor activity against human NCI-H460 cells xenografted in BALB/c nude mouse assessed as tumor growth inhibition at 40 mg/kg/day administered qd measured up to day 21 relative to control; assay type: functional; details: NCI-H460, 504 h, read-out: TGI
[6] = Antiproliferative activity against human NCI-H3122 cells after 72 hrs by MTT assay; assay type: functional, cell-based; details: NCI-H3122, 72 h
[7] = tested on: NCI-H526; assay: Antiproliferative activity against human NCI-H526 cells after 72 hrs by MTT assay; assay type: functional, cell-based; details: NCI-H526, 72 h
[8] = Solubility of the compound in water; assay type: physicochemical; details: buffer
[9] = target: T3, Tyrosine-protein kinase Lck (Homo sapiens, UniProt P06239); details: 1 uM
Description: Inhibition of LCK (unknown origin) at 1 uM relative to control

[10] = tested on: Mus musculus; assay: Toxicity in BALB/c nude mouse xenografted with human HT-29 cells assessed as change in body weight at 80 mg/kg/day administered qd relative to control; assay type: organism-based; details: in vivo
[11] = target: T3, Tyrosine-protein kinase Lck; assay: Binding affinity to LCK (unknown origin)
Target sequence in this assay (P06239 whole entry): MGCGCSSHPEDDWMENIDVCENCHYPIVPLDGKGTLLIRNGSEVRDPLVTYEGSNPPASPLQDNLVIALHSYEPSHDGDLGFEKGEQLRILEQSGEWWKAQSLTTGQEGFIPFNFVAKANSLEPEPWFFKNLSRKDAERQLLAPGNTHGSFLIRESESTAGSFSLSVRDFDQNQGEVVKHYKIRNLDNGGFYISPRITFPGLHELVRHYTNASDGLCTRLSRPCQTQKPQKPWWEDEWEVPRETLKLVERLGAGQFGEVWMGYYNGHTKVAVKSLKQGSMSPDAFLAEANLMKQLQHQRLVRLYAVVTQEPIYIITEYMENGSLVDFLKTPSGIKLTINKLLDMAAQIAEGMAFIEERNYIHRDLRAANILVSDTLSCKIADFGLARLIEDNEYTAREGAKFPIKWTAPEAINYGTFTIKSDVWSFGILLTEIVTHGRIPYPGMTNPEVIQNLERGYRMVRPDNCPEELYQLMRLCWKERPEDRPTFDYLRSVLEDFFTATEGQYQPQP

[12] = target: Tyrosine-protein kinase receptor UFO (Homo sapiens, UniProt P30530); assay: Binding affinity to AXL (unknown origin)
[13] = target: T4, Mast/stem cell growth factor receptor Kit (Homo sapiens, UniProt P10721); details: 1 uM
T4 sequence (P10721 whole entry): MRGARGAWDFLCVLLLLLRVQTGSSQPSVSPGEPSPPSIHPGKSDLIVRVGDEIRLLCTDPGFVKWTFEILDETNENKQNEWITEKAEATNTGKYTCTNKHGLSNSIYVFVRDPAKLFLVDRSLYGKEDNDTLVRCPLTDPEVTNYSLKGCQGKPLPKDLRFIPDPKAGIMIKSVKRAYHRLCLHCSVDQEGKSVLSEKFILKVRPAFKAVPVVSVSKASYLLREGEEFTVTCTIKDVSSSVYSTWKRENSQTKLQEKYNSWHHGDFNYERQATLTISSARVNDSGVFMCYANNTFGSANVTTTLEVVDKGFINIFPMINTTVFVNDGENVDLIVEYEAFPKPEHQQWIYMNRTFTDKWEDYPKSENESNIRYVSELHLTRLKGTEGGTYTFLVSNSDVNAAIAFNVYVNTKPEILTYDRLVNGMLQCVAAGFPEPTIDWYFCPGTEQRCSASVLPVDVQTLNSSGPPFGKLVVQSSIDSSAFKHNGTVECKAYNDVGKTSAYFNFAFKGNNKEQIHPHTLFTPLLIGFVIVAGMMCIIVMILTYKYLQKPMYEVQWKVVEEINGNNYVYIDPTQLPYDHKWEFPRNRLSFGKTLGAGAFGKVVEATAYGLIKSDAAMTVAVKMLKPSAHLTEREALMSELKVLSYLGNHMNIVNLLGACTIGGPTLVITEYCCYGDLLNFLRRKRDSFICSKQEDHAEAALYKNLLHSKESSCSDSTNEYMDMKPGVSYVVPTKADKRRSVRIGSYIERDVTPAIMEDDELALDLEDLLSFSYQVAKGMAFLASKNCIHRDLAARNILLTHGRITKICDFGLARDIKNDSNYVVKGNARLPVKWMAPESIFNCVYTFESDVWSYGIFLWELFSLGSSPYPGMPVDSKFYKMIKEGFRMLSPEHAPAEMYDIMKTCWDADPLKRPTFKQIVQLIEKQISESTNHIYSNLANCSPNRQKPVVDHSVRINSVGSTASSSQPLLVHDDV
Description: Inhibition of c-KIT (unknown origin) at 1 uM relative to control

[14] = target: T2, Vascular endothelial growth factor receptor 1; assay: Binding affinity to VEGFR1 (unknown origin)
[15] = target: T5, Fibroblast growth factor receptor 1 (Homo sapiens, UniProt P11362); assay: Inhibition of FGFR1 (unknown origin) at 1 uM relative to control
[16] = target: Phosphorylase b kinase gamma catalytic chain, liver/testis isoform (Homo sapiens, UniProt P15735); assay: Binding affinity to PHKgamma2 (unknown origin)
[17] = target: T6, ALK tyrosine kinase receptor (Homo sapiens, UniProt Q9UM73); details: 1 uM
Description: Inhibition of ALK (unknown origin) at 1 uM relative to control

[18] = target: Focal adhesion kinase 1 (Homo sapiens, UniProt Q05397); assay: Binding affinity to FAK (unknown origin)
[19] = tested on: Aorta; assay: Antiangiogenic activity in Sprague-Dawley rat aortic ring at 0.2 ug/ml after 6 days by inverted microscopic analysis; assay type: functional, tissue-based
[20] = target: T5, Fibroblast growth factor receptor 1; assay: Binding affinity to FGFR1 (unknown origin)
[21] = target: Tyrosine-protein kinase receptor UFO (Homo sapiens) (UniProt P30530); details: 1 uM
Description: Inhibition of AXL (unknown origin) at 1 uM relative to control

[22] = target: T7, Tyrosine-protein kinase Fyn (Homo sapiens, UniProt P06241); details: 1 uM
Description: Inhibition of FYN (unknown origin) at 1 uM relative to control

[23] = target: T8, Platelet-derived growth factor receptor beta (Homo sapiens, UniProt P09619); assay: Inhibition of PDGFR-beta (unknown origin) at 1 uM relative to control
T8 sequence (P09619 whole entry): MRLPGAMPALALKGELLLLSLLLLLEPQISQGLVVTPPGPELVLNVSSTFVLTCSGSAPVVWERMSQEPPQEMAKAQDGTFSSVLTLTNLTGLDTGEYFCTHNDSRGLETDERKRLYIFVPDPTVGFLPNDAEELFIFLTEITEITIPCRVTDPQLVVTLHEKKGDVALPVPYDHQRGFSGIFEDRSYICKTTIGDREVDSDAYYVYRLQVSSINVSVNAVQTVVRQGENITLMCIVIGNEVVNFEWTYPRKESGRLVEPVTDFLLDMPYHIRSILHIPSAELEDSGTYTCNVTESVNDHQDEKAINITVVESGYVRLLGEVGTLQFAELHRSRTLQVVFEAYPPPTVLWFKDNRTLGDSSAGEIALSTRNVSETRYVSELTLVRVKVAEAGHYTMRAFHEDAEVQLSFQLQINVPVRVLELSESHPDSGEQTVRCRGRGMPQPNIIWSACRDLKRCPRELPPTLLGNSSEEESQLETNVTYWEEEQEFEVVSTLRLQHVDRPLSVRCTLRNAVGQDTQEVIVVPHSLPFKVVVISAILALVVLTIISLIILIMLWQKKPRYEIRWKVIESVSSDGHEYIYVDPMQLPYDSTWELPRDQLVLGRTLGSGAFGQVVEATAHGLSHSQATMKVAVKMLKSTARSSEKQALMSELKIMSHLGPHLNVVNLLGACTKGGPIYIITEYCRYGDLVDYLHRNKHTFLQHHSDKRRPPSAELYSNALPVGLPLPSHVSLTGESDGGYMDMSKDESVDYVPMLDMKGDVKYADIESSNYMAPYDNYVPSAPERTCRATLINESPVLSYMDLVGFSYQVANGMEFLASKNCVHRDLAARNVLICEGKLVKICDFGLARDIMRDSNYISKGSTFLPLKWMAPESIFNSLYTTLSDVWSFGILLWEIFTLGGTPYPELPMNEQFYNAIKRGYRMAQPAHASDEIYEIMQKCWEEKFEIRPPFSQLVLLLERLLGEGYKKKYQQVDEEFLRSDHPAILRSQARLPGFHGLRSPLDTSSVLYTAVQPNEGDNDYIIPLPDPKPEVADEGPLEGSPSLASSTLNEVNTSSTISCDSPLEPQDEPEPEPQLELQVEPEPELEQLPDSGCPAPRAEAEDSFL

[24] = target: T1, Tyrosine-protein kinase ABL2; assay: Binding affinity to ARG (unknown origin)
[25] = target: T4, Mast/stem cell growth factor receptor Kit; assay: Binding affinity to c-KIT (unknown origin)
[26] = Antiproliferative activity against human HK2 cells after 72 hrs by MTT assay; assay type: cell-based; details: HK-2, 72 h
[27] = tested on: Mus musculus; assay: Toxicity in BALB/c nude mouse xenografted with human NCI-H460 cells assessed as change in body weight at 40 mg/kg/day administered qd relative to control; assay type: organism-based; details: in vivo
[28] = target: T9, Macrophage colony-stimulating factor 1 receptor (Homo sapiens, UniProt P07333); assay: Inhibition of FMS (unknown origin) at 1 uM relative to control
T9 sequence (P07333 whole entry): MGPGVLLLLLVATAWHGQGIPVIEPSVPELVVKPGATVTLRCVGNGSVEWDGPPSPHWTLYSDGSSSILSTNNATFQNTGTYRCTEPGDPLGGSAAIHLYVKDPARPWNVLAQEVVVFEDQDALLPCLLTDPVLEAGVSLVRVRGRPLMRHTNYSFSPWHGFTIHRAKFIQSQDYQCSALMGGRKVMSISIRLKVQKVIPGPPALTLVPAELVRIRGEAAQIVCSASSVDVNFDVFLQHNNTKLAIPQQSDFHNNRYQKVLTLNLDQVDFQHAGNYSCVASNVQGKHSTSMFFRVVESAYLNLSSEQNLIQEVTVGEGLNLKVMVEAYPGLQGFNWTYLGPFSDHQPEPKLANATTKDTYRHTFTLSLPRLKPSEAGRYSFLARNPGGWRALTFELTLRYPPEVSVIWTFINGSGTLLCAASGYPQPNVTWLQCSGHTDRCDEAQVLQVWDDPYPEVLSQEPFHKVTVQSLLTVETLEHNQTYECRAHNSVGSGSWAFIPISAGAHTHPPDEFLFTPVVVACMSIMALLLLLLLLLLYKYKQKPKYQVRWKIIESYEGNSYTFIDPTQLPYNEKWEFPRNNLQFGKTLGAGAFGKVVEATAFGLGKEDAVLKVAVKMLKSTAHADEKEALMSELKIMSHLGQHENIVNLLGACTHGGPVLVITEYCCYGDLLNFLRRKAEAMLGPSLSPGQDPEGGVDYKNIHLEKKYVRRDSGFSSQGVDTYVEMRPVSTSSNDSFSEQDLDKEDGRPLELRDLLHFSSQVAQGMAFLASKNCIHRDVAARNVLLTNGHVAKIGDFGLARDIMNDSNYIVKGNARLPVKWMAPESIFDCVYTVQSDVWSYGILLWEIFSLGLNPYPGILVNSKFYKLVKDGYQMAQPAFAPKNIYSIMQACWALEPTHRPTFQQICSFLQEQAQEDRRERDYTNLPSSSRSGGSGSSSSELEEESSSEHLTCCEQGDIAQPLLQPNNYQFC

[29] = target: T10, Vascular endothelial growth factor receptor 2 (Homo sapiens, UniProt P35968); assay: Binding affinity to VEGFR2 (unknown origin)
T10 sequence (P35968 whole entry): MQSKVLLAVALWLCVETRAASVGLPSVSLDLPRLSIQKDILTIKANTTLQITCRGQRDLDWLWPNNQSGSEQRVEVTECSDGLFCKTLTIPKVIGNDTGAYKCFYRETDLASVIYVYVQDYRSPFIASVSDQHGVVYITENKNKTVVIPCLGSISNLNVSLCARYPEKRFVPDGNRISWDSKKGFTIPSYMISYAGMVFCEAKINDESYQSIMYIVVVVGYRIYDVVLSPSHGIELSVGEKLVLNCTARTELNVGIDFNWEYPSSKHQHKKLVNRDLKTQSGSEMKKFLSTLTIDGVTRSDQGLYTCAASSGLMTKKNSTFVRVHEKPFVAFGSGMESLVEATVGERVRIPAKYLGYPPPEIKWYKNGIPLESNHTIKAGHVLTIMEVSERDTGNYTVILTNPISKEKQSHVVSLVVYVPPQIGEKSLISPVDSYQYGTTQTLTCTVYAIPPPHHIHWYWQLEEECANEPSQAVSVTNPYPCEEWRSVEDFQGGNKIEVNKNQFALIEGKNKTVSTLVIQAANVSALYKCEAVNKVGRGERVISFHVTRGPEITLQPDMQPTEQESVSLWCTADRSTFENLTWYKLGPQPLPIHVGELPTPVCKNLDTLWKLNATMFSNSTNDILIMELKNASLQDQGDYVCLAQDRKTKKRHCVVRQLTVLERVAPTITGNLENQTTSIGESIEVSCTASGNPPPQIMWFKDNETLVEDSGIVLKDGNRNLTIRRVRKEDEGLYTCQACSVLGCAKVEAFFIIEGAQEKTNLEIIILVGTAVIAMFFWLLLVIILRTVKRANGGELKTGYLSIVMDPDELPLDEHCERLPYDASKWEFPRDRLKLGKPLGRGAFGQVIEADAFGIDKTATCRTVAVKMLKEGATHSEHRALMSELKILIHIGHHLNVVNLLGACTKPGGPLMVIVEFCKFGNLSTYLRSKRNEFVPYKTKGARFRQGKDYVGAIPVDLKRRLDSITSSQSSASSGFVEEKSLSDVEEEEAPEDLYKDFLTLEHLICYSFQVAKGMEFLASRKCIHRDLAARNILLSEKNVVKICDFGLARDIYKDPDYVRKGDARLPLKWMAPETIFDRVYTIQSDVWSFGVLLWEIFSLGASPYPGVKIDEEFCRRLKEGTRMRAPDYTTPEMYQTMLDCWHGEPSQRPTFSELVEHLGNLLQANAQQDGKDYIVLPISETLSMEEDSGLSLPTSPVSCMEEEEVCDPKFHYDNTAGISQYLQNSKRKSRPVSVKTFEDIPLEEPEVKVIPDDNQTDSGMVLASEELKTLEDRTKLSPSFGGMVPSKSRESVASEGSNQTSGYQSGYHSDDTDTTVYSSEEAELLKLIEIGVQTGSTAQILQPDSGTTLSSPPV

[30] = tested on: Mus musculus; assay: Toxicity in BALB/c nude mouse xenografted with human HT-29 cells assessed as bloody stool at 80 mg/kg/day administered qd measured up to day 21; assay type: organism-based; details: in vivo
[31] = target: T7, Tyrosine-protein kinase Fyn; assay: Binding affinity to FYN (unknown origin)
[32] = target: T6, ALK tyrosine kinase receptor; assay: Binding affinity to ALK (unknown origin)
[33] = tested on: Aorta; assay: Inhibition of micrangium generation in Sprague-Dawley rat aortic ring at 0.2 ug/ml after 6 days by inverted microscopic analysis; assay type: functional, tissue-based
[34] = tested on: Mus musculus; assay: Toxicity in BALB/c nude mouse xenografted with human HT-29 cells assessed as severe weight loss at 80 mg/kg/day administered qd; assay type: organism-based; details: in vivo
[35] = Antiproliferative activity against human MV411 cells after 48 hrs by MTT assay; assay type: functional, cell-based; details: MV4-11, 48 h
[36] = target: Vascular endothelial growth factor receptor 3 (Homo sapiens, UniProt P35916); assay: Binding affinity to VEGFR3 (unknown origin)
[37] = target: T11, Proto-oncogene tyrosine-protein kinase receptor Ret (Homo sapiens, UniProt P07949); assay: Binding affinity to RET (unknown origin)
[38] = target: T11, Proto-oncogene tyrosine-protein kinase receptor Ret; details: 1 uM
Description: Inhibition of RET (unknown origin) at 1 uM relative to control

[39] = target: T10, Vascular endothelial growth factor receptor 2; details: 1 uM
Description: Inhibition of VEGFR2 (unknown origin) at 1 uM relative to control

[40] = target: Receptor-type tyrosine-protein kinase FLT3 (Homo sapiens, UniProt P36888); assay: Binding affinity to FLT3 (unknown origin)
[41] = Antiproliferative activity against human LO2 cells after 72 hrs by MTT assay; assay type: cell-based; details: L02, 72 h
[42] = target: T9, Macrophage colony-stimulating factor 1 receptor; assay: Binding affinity to FMS (unknown origin)
[43] = target: Voltage-gated inwardly rectifying potassium channel KCNH2 (Homo sapiens, UniProt Q12809); assay: Inhibition of human ERG
[44] = tested on: NCI-H460; assay: Antiproliferative activity against human NCI-H460 cells after 72 hrs by MTT assay; assay type: functional, cell-based; details: NCI-H460, 72 h
[45] = target: T12, Tyrosine-protein kinase ABL1 (Homo sapiens, UniProt P00519); assay: Inhibition of ABL (unknown origin) at 1 uM relative to control
[46] = Antiproliferative activity against human Bel7402 cells after 72 hrs by MTT assay; assay type: functional, cell-based; details: Bel-7402, 72 h
[47] = target: T12, Tyrosine-protein kinase ABL1; assay: Binding affinity to ABL (unknown origin)
[48] = target: T8, Platelet-derived growth factor receptor beta; assay: Binding affinity to PDGFR-beta (unknown origin)
[49] = target: Receptor-type tyrosine-protein kinase FLT3 (Homo sapiens) (UniProt P36888); assay: Inhibition of FLT3 (unknown origin) at 1 uM relative to control

With `Cc1[nH]c(/C=C2\C(=O)Nc3ccc(F)cc32)c(C)c1NC(=O)CCN1CCN(C)CC1` the inhibition [1] was 72%, the inhibition [2] was 76% and the Activity [3] was “Non-toxic”. For the same molecule, the inhibition [4] was 52%, the inhibition in vivo at 40 mg/kg/day [5] was 60.6% and the IC50 [6] was 17100 nM. The IC50 [7] was 20600 nM, the solubility [8] was “soluble” and the inhibition [9] was 44%. It also gave an Activity [10] of 6.2%, a Ki [11] of 2000 nM and a Ki [12] of 63 nM. The inhibition [13] was 87%, the Ki [14] was 1100 nM and the inhibition [15] was 71%. For the same molecule, the Ki [16] was 840 nM, the inhibition [17] was 87% and the Ki [18] was 530 nM. The inhibition [19] was “Active”, the Ki [20] was 350 nM and the inhibition [21] was 95%. It also gave an inhibition [22] of 44%, an inhibition [23] of 79% and a Ki [24] of 180 nM. For the same molecule, the Ki [25] was 200 nM, the IC50 [26] was 6850 nM and the Activity [27] was 1.4%. For the same molecule, the inhibition [28] was 84%, the Ki [29] was 3.8 nM and the Activity [30] was “Non-toxic”. The Ki [31] was 1800 nM, the Ki [32] was 95 nM and the inhibition [33] was “Active”. For the same molecule, the Activity [34] was “Non-toxic”, the IC50 [35] was 8 nM and the Ki [36] was less than 0.3 nM. For the same molecule, the Ki [37] was 18 nM, the inhibition [38] was 99% and the inhibition [39] was 99%. The Ki [40] was less than 0.3 nM, the IC50 [41] was 41400 nM and the Ki [42] was 230 nM. It also gave an IC50 [43] of 18800 nM, an IC50 [44] of 6110 nM and an inhibition [45] of 93%. The IC50 [46] was 14700 nM, the Ki [47] was 120 nM and the Ki [48] was 19 nM. It also gave an inhibition [49] of 100%.
